Data published in paper PMC9841527 (Journal of Medicinal Chemistry, 2022).

How the values were obtained:
CamA [1] = molecular target: T1, CamA (Clostridioides difficile, UniProt Q183J3); type: biochemical
T1 sequence (Q183J3 1-577): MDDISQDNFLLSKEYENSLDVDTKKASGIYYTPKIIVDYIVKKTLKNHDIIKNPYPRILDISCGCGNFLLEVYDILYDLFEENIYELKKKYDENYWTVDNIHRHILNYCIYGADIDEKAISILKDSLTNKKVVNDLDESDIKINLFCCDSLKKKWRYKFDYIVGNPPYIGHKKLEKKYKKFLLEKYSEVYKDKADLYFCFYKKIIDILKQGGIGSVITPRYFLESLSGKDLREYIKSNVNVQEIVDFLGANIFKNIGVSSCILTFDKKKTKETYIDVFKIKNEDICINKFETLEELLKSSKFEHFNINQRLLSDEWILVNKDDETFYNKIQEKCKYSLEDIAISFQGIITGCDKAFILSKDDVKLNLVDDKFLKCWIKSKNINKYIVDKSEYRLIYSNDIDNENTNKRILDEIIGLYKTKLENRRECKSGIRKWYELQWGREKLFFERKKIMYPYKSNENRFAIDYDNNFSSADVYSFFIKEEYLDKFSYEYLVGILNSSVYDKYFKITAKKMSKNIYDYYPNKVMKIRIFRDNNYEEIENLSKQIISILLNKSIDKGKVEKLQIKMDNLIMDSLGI

PCIF1 = PCIF1 (Homo sapiens, UniProt Q9H4Z3); type: biochemical
Dnmt3a-Dnmt3L = Dnmt3a-Dnmt3L (Mus musculus, UniProt O88508); type: biochemical
DNMT1 = DNMT1 (Homo sapiens, UniProt P26358); experiment: Selectivity assay, DNMT1; type: biochemical; conditions: [I] = 10 μM, [SAM] = 5.5 μM, 37 °C
PRMT1 = PRMT1 (Homo sapiens, UniProt Q99873); experiment: Selectivity assay, PRMT1; type: biochemical; conditions: compound 10 μM, 3H-SAM 1 μM
DOT1L = DOT1L (Homo sapiens, UniProt Q8TEK3); experiment: Selectivity assay, DOT1L; type: biochemical; conditions: compound 10 μM, 3H-SAM 1 μM
EZH2 complex = EZH2 complex (Homo sapiens, UniProt Q15910); experiment: Selectivity assay, EZH2 complex; type: biochemical; conditions: compound 10 μM, 3H-SAM 1 μM
CamA [2] = molecular target: T1, CamA; experiment: Isothermal titration calorimetry; type: binding
MettL3-MettL14 = MettL3-MettL14 (Homo sapiens, UniProt Q86U44); experiment: Selectivity assay, MettL3-MettL14; type: biochemical; conditions: [I] = 10 μM, [SAM] = 20 μM, 5 mM NaCl, or CamA conditions
G9a = molecular target: T2, G9a (Homo sapiens, UniProt Q96KQ7); experiment: Selectivity assay, G9a; type: biochemical; conditions: compound 10 μM, 3H-SAM 1 μM
T2 sequence (Q96KQ7 1-1210): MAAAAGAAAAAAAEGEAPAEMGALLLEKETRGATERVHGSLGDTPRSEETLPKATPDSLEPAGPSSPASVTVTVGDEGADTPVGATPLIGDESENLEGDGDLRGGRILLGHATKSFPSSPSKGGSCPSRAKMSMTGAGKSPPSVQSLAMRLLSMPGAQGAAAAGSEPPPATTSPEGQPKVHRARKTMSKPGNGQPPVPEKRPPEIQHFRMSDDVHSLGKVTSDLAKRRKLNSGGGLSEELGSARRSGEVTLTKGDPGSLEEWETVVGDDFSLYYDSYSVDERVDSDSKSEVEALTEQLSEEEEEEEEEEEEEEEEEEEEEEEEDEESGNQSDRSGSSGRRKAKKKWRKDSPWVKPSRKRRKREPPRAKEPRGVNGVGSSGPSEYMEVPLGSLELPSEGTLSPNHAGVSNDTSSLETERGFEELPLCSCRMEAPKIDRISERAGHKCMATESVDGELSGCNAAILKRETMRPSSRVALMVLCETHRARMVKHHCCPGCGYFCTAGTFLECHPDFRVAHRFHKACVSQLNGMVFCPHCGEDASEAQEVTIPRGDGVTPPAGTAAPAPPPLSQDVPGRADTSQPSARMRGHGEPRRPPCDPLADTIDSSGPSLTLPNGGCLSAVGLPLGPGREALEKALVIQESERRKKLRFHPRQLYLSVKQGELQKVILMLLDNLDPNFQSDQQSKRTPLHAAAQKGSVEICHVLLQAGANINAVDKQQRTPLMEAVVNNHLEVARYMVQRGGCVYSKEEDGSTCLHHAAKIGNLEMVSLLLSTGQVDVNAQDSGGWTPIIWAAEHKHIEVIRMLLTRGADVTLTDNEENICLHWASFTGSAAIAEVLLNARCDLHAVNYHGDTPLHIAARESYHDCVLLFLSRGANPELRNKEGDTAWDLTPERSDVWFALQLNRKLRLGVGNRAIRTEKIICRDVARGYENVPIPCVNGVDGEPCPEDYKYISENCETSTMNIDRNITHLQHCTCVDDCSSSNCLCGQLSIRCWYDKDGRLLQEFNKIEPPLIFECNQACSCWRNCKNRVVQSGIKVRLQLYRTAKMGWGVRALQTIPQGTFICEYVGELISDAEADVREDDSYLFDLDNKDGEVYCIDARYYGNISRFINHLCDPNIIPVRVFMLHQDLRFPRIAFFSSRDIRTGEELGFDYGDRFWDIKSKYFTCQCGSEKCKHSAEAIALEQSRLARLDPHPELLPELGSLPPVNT

MettL5-Trm112 = MettL5-Trm112 (Homo sapiens, UniProt Q9NRN9); type: biochemical
Chain of MettL5-Trm112 (Q9NRN9 whole entry): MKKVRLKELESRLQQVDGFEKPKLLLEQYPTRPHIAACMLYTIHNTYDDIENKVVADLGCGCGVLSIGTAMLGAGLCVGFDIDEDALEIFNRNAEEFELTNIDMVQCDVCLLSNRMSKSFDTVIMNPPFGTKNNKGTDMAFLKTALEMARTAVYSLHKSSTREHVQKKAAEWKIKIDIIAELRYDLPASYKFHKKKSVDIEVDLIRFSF
Chain of MettL5-Trm112 (Q9UI30 whole entry partner): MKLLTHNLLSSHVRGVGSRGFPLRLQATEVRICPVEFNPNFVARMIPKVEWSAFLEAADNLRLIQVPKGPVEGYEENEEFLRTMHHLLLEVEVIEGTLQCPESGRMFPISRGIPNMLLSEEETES

Chain of PCIF1 (Q9H4Z3 whole entry): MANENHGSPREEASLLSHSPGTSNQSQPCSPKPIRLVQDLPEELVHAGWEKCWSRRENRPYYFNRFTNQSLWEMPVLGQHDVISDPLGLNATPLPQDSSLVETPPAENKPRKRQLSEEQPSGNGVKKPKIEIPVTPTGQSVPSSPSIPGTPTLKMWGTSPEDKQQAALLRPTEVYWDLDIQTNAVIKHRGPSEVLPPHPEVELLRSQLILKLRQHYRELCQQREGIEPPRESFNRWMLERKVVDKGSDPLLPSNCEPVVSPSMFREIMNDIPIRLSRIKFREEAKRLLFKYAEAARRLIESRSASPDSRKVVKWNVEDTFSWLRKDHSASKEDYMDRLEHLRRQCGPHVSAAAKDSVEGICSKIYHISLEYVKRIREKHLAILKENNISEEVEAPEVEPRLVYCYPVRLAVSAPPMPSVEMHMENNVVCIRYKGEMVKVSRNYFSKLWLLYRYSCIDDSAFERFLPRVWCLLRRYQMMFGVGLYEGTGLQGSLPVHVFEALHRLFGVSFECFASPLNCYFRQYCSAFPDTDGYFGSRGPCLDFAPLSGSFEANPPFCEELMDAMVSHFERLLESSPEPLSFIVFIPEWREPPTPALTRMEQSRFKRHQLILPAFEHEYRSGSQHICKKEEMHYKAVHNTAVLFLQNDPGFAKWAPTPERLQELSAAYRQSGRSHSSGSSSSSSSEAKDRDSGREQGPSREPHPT
Chain of DNMT1 (P26358 351-1600): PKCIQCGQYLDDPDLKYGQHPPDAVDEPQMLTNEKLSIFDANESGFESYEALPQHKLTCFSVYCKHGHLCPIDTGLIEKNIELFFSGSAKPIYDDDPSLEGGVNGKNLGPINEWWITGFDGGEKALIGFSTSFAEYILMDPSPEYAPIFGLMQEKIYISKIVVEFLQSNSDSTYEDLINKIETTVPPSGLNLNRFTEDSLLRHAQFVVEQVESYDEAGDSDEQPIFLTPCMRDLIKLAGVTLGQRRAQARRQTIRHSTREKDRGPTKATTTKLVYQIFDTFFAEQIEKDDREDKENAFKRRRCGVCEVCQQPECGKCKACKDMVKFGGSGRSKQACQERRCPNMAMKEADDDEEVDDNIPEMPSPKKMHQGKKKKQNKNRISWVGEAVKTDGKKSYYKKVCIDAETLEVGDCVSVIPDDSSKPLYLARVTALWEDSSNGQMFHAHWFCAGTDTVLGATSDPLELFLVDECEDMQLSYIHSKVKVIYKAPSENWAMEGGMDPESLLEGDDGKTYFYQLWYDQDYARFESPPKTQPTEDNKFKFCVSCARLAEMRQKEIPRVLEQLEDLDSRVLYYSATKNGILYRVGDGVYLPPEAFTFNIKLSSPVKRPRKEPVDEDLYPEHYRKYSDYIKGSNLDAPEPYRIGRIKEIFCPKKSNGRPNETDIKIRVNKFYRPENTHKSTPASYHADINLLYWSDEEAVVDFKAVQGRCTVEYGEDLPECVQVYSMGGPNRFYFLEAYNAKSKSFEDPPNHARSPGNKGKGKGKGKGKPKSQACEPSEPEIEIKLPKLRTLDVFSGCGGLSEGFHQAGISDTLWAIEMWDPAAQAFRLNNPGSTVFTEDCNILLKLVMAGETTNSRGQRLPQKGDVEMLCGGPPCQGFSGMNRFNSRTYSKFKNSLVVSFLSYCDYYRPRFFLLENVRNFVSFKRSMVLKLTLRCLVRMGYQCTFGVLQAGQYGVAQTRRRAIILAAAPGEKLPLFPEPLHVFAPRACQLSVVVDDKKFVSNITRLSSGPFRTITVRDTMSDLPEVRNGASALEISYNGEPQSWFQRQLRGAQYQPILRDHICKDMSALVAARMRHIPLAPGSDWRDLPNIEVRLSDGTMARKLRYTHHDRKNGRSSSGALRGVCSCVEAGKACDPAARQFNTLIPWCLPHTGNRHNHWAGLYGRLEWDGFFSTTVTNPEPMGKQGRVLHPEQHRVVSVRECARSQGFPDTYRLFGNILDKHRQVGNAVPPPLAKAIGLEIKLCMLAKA
Chain of MettL3-MettL14 (Q86U44 whole entry): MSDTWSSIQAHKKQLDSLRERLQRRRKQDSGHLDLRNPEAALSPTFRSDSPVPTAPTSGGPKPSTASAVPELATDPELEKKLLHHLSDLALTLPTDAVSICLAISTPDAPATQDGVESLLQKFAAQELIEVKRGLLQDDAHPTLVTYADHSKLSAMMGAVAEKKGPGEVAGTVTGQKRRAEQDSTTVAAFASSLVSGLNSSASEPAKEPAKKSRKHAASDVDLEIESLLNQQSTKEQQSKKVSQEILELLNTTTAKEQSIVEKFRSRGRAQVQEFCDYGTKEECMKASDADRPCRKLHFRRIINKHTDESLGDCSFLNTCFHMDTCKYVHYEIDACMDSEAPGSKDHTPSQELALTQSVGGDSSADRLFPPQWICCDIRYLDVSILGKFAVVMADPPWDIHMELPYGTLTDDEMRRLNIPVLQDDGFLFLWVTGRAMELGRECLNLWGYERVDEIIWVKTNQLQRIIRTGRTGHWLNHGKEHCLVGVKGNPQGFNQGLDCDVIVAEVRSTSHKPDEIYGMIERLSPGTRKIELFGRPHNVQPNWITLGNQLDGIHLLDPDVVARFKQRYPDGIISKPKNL
Chain of MettL3-MettL14 (Q9HCE5 whole entry partner): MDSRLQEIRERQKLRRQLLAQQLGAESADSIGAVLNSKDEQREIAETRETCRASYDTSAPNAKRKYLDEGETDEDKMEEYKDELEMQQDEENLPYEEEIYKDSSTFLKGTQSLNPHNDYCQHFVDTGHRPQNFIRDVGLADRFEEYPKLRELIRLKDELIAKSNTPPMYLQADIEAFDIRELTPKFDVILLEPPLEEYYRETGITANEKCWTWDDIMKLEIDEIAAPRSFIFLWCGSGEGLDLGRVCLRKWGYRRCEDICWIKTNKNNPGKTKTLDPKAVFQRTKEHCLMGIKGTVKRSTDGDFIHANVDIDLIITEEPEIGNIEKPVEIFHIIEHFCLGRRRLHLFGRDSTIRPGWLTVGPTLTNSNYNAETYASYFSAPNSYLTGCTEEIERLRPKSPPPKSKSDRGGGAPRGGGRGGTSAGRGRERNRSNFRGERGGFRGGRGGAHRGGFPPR
Chain of DOT1L (Q8TEK3 whole entry): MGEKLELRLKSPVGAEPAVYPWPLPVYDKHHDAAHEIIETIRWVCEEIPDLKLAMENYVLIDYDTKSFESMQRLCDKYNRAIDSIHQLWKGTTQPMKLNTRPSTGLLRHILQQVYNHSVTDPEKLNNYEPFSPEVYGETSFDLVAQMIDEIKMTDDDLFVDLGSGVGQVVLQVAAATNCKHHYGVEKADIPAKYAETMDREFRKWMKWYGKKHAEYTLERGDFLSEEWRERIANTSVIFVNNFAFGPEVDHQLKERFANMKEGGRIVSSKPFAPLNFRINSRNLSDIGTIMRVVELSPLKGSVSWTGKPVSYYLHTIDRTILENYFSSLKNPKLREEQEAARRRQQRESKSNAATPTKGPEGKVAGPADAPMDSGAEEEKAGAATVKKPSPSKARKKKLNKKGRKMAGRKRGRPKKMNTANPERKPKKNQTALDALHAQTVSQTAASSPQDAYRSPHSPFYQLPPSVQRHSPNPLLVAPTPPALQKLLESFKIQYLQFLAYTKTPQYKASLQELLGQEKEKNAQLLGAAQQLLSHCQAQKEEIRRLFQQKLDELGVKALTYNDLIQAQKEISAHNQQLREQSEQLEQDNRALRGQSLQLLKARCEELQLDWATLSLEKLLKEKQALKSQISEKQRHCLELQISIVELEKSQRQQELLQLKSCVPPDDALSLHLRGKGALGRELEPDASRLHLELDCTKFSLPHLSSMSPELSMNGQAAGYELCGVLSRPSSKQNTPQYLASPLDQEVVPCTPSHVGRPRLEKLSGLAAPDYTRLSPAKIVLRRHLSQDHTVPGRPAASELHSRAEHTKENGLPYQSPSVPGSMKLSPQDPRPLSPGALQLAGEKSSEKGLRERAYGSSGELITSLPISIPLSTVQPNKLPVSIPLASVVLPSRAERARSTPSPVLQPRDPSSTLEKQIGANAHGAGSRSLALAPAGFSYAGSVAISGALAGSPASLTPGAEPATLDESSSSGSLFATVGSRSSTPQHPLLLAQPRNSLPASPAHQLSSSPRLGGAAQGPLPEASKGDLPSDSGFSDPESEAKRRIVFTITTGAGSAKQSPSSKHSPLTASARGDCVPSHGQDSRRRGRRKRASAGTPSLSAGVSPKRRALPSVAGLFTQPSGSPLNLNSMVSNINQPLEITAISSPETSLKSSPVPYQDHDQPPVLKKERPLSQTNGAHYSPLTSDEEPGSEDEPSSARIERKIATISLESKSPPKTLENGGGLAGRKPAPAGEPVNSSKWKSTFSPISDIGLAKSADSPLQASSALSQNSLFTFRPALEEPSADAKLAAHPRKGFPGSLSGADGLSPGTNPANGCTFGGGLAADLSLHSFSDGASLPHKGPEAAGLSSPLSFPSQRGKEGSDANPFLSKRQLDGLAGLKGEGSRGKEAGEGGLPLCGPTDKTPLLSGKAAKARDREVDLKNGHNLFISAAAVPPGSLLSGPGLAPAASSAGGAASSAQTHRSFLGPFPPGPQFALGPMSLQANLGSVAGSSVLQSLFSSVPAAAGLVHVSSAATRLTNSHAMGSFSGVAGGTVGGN

| Structure (SMILES) | lower IC50 value, fold (CamA [1]) | inhibition of PCIF1 (PCIF1) | inhibition of Dnmt3a-Dnmt3L (Dnmt3a-Dnmt3L) | inhibition of DNMT1 (DNMT1) | inhibition of PRMT1 (PRMT1) | inhibition of DOT1L (DOT1L) | inhibition of EZH2 complex (EZH2 complex) | lower KD value, fold (CamA [2]; compared to compound 15) | inhibition of MettL3-MettL14 (MettL3-MettL14) | inhibition of G9a (G9a) | inhibition of MettL5-Trm112 (MettL5-Trm112) | higher potency, fold (CamA [1]) | Kd (CamA [2]; KD ± SD, ITC, 25 °C) | KD improved, fold (CamA [2]; from that of compound 37) |
| --- | --- | --- | --- | --- | --- | --- | --- | --- | --- | --- | --- | --- | --- | --- |
| OC[C@H]1O[C@@H](n2cnc3c(NCCCc4ccc(O)cc4)ncnc32)[C@H](O)[C@@H]1O [Compound 16, (2R,3S,4R,5R)-2-(Hydroxymethyl)-5-(6-((3-(4-hydroxyphenyl)propyl)amino)-9H-purin-9-yl)tetrahydrofuran-3,4-diol] | ~2.7 X | none of them showed any significant inhibition | none of them showed any significant inhibition | none of them showed any significant inhibition | none of them showed any significant inhibition | none of them showed any significant inhibition | none of them showed any significant inhibition | ~6.5 X | none of them showed any significant inhibition | none of them showed any significant inhibition | none of them showed any significant inhibition | – | – | – |
| CC(C)(C)OC(=O)N1CCC(CCCNc2ncnc3c2ncn3[C@@H]2O[C@H](CO)[C@@H](O)[C@H]2O)CC1 [Compound 39, tert-Butyl-4-(3-((9-((2R,3R,4S,5R)-3,4-dihydroxy-5-(hydroxymethyl)tetrahydrofuran-2-yl)-9H-purin-6-yl)amino)propyl)piperidine-1-carboxylate] | – | none of them showed any significant inhibition | none of them showed any significant inhibition | none of them showed any significant inhibition | none of them showed any significant inhibition | none of them showed any significant inhibition | none of them showed any significant inhibition | – | none of them showed any significant inhibition | none of them showed any significant inhibition | none of them showed any significant inhibition | 12 × | ~200 nM | ~8 × |
